Measurements taken from patent publication US20250360160A1, “NEW MEDICAL USE OF TAFOXIPARIN” (DILAFOR AB, priority 2022, published 2025).

How the values were obtained:
[1] = system: factor IIa; experiment: antifactor IIa activity; type: biochemical; settings: definition of tafoxiparin
[2] = anticoagulant activity; settings: definition of DF01

Sequence of factor IIa (P01008 33-464): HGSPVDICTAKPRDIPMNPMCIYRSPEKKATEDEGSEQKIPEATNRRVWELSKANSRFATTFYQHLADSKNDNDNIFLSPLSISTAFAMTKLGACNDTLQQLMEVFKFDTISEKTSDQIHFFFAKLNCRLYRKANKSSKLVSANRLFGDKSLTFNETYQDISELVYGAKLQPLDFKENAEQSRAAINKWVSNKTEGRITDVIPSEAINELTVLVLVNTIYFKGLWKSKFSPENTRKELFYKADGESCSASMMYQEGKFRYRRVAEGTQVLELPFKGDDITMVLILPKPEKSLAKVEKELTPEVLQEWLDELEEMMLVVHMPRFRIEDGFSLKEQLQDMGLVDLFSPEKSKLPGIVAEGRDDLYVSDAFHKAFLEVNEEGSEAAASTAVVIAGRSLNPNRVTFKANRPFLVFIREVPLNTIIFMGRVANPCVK

tafoxiparin
antifactor IIa activity [1]: less than 10 IU/mg
anticoagulant activity [2]: essentially no anticoagulant activity
